# Test results from PubChem BioAssay AID1963597 (National Center for Advancing Translational Sciences (NCATS), 2024).
# Test system: human liver microsomes, metabolic stability half-life
# Assay: NCATS Human Liver Microsomal (HLM) Stability Profiling
# Conditions: higher = more stable; screened at 1 µM (by protocol)
# Description: Assay submitter (PI): Dr. Pranav Shah
# NIH Center for Advancing Translational Sciences
# Pharmacokinetic issues were the leading cause of drug attrition, accounting for approximately 40% of all cases before the turn of the century. To this end, several high-throughput in vitro assays like microsomal stability have been developed to evaluate the pharmacokinetic profiles of compounds in early stages of drug discovery. At NCATS, a single-point rat liver microsomal (RLM) stability assay is used as a Tier I assay, while human liver microsomal (HLM) stability is employed as a Tier II assay. While it is beneficial to have compound libraries screened for HLM stability, the increasing magnitude of hits routinely generated, and the time- and re-source-intensive nature of the assay makes it important to find alternatives. One strategy is to rely on in silico models that have been developed using data generated from these assays. Herein, we describe the development of an HLM stability prediction model using our in-house dataset of ~7,000 compounds, employing both traditional and advanced machine learning methods. Additionally, the strong correlation between our RLM and HLM data was further reinforced by the fact that our HLM model performance improved after adding RLM stability predictions as an input descriptor. […] The best model along with a subset of our dataset has been made publicly accessible on the NCATS@ADME website for the benefit of the greater drug discovery community.
# Microsomal Stability Assay
# The substrate depletion method, also called the in vitro t1/2 method was used to analyze test compounds. Incubation and liquid handling were carried out using a previously described method (Shah et al., 2016). Briefly, each reaction mixture (110 µL) consisted of a test article (1 µM), human liver microsomes (0.5 mg/mL), and NADPH regenerating system in phosphate buffer at pH 7.4. Samples were incubated in 384-well plates at 37 degrees C for 0, 5, 10, 15, 30 and 60 min. At each time point, 10 µL of the incubation mixture was aspirated into another 384-well plate which contained cold acetonitrile (ACN) with internal standard (albendazole). All plates were centrifuged at 3000 rpm for 20 min at 4 degrees C, and the supernatants were transferred to a 384-well injection plate. Sample quantification and analysis was performed using a previously described method (Shah et al., 2016, Siramshetty et al., 2020).
# 1: Shah, P. et al. An Automated High-Throughput Metabolic Stability Assay Using an Integrated High-Resolution Accurate Mass Method and Automated Data Analysis Software. Drug Metab Dispos 44, 1653-1661 (2016).
# 2: Siramshetty et al. Retrospective assessment of rat liver microsomal stability at NCATS: data and QSAR models. Sci Rep 26;10(1):20713 (2020).
row,Compound,half-life [min]
1,Fc1ccc(CN2CCC(Nc3ccc(C(F)(F)F)nn3)CC2)cc1F,42.3
2,CN1CCN(CCCN2c3ccccc3Sc3ccc(C(F)(F)F)cc32)CC1,22.5
3,CN[C@@H](C)[C@@H](O)c1ccccc1,> 120
4,N[C@@H](CC(=O)Nc1ccc(Oc2cc(F)c(F)cc2Br)cc1)C(=O)O,> 120
5,Nc1ncnc2c1ncn2[C@@H]1O[C@H](CO)[C@@H](O)[C@@H]1O,> 120
6,O=C(CCBr)N1CCN(C(=O)CCBr)CC1,> 120
7,CCN1CCCC1CNC(=O)c1cc(S(=O)(=O)CC)c(N)cc1OC (stereo not drawn),> 120
8,O=C(c1ccc(F)cc1)C1CCN(CCn2c(=S)[nH]c3ccccc3c2=O)CC1,8.98
9,CC(=O)OCC(=O)[C@@]1(O)CC[C@H]2[C@@H]3CCC4=CC(=O)C=C[C@]4(C)[C@@]3(F)[C@@H](O)C[C@@]21C,87.5
10,N#Cc1ccc(C(=O)Nc2ccc(Cl)c(-c3nc4ncccc4o3)c2)c(F)c1,10.3
11,Cc1cc(C(C)(C)C)c(O)c(C(C)(C)C)c1,> 120
12,CCOc1ccc(-n2c([C@@H](C)N(Cc3cccnc3)C(=O)Cc3ccc(OC(F)(F)F)cc3)nc3ncccc3c2=O)cc1,8.23
13,CCOC(=O)NNc1nncc2ccccc12,97.1
14,CCOC(=O)c1cc(C#N)c(N2CCC(C(=O)NS(=O)(=O)Cc3ccccc3)CC2)nc1C,43.7
15,O[C@@H]1CO[C@H]2[C@@H]1OC[C@@H]2O,> 120
16,C[C@H]1[C@H](/C=C/c2ccc(-c3ccccc3C#N)cn2)[C@@H]2[C@@H](C)OC(=O)[C@@H]2C[C@@H]1C,15.3
17,Fc1ccc([C@@H]2CCNC[C@H]2COc2ccc3c(c2)OCO3)cc1,71.3
18,O=c1cc(OCc2ccc(F)cc2)ccn1-c1ccc(OCCN2CCCC2)cc1,> 120
19,CCOC(=O)c1ncn2c1CN(C)C(=O)c1cc(F)ccc1-2,> 120
20,O=C(NCc1ccco1)c1ccc2c(c1)N(Cc1cccc(Cl)c1)C(=O)c1ccccc1S2=O (stereo not drawn),0.62
21,CC1(C)CC(=O)c2c(C(F)(F)F)nn(-c3ccc(C(N)=O)c(NC4CCC(OC(=O)CN)CC4)c3)c2C1 (stereo not drawn),1.57
22,COc1cc2c(Nc3ccc(Cl)c(Cl)c3F)ncnc2cc1OCC1C[C@@H]2CN(C)C[C@@H]2C1 (stereo partly drawn),61.9
23,O=C(c1ccccn1)N(Cc1cccs1)C1(C(=O)NC2CCCCC2)CCCCC1,1.6
24,CCCc1nc(C(C)(C)O)c(C(=O)O)n1Cc1ccc(-c2ccccc2-c2nn[nH]n2)cc1,> 120
25,CCn1c(C(=O)NCc2ccccc2Cl)cc2sc(Cl)cc21,7.52

row,Compound,half-life [min]
1,COc1ccc(Cn2c(SCC(=O)N3CCN(c4ccc(F)cc4)CC3)nc3ccccc32)cc1,2.2
2,O=C(NN1CCCC1)NS(=O)(=O)c1ccc(Cl)cc1,> 120
3,Cc1c(C(=O)Nc2cccc(C(F)(F)F)c2)cc(-c2ccccc2)n1CCCN1CCOCC1,8.06
4,CCNC1(C(N)=O)CN(c2nc(C)nc3c(-c4ccc(Cl)cc4)c(-c4ccccc4Cl)nn23)C1,20.5
5,COc1cc(C)c(/C=C/C(C)=C/C=C/C(C)=C/C(=O)O)c(C)c1C,32
6,CNc1cccc(CCOc2ccc3c(c2)CN(CC(F)(F)F)C(=O)[C@H](CC(=O)O)C3)n1,> 120
7,c1ccc(-c2cnc(Nc3ccc(OCCN4CCCC4)cc3)s2)cc1,103
8,c1cncc(CN2CCC(n3ncc4c(N5CCOCC5)nc(-c5ccc6[nH]ccc6c5)nc43)CC2)c1,14.9
9,Clc1ccc(C(Cn2ccnc2)OCc2ccc(Sc3ccccc3)cc2)c(Cl)c1 (stereo not drawn),54.1
10,CCOC(=O)[C@H](CCc1ccccc1)N[C@H]1CCc2ccccc2N(CC(=O)O)C1=O,18.6
11,CC1(c2ccccc2)N(Cc2ccccc2)C(=O)OC12CCN(Cc1ccc(C(=O)O)cc1)CC2 (stereo not drawn),> 120
12,CCCc1nn(C)c2c(=O)[nH]c(-c3cc(S(=O)(=O)N4CCN(C)CC4)ccc3OCC)nc12,18.7
13,Fc1ccc2[nH]c(CN3CCN(c4ccccn4)CC3)cc2c1,14.3
14,O=C1N(c2ccccc2)c2ccccc2C1(Cc1ccncc1)Cc1ccncc1,1.71
15,Cc1cnc(Nc2cccc(CN3CCOCC3)c2)nc1Nc1cccc(S(=O)(=O)NC(C)(C)C)c1,19.5
16,O=C(NC1(c2ccccc2)CC1)c1c(CN2CCC(N3CCCCC3)CC2)c(-c2cccc(C(F)(F)F)c2)nc2cc(Br)ccc12,28.1
17,O=C(CCCCCn1c(=O)c2sccc2n(CC(=O)Nc2cccc(Cl)c2)c1=O)NCc1ccc2c(c1)OCO2,9.36
18,CCNP(=S)(OC)O/C(C)=C/C(=O)OC(C)C (stereo not drawn),> 120
19,Nc1ccc(C(=O)Nc2cccc(-c3nc(N4CCOCC4)c4oc5ncccc5c4n3)c2)cn1,56.2
20,Cc1cccc(C)c1NC(=O)[C@H]1CCCCN1C,> 120
21,CC(=O)c1ccc(N2CCN(c3ncnc4c3cnn4C)CC2)cc1,109
22,COc1ccc(CCC(C)=O)cc1,> 120
23,COc1cc(C(=S)N2CCOCC2)cc(OC)c1OC,> 120
24,CC1=C(CC(=O)O)c2cc(F)ccc2/C1=C\c1ccc(S(C)=O)cc1 (stereo not drawn),> 120
25,O=C(c1cnn(-c2cccc(F)c2)c1-n1cccc1)N1CCN(c2ccccc2F)CC1,9.4

row,Compound,half-life [min]
1,CCOC(=O)[C@H](CCc1ccccc1)N[C@H]1CCCN2CCC[C@@H](C(=O)O)N2C1=O,16.7
2,Cn1ncc(Cl)c1-c1cc(C(=O)N[C@H](CN)Cc2ccc(F)c(F)c2)sc1Cl,109
3,O=C(OCC(O)CO)c1ccccc1Nc1ccnc2c(C(F)(F)F)cccc12 (stereo not drawn),34.6
4,CCCCCOC(=O)Nc1nc(=O)n([C@@H]2O[C@H](C)[C@@H](O)[C@H]2O)cc1F,> 120
5,Cc1nc(N)ncc1-c1nc(N2CCOCC2)c2sc(C(C)(C)O)cc2n1,> 120
6,Cc1cccc(N2CCN(C(=O)c3cn(C4CCCCC4)c(=O)c4c3c3ccccc3n4C)CC2)c1C,0.76
7,Cc1ccc2c(n1)Oc1ccc(C(C)C(=O)OCC(=O)N(C)C)cc1C2 (stereo not drawn),11.1
8,O=C(NC1CCN(CCCCC2(C(=O)NCC(F)(F)F)c3ccccc3-c3ccccc32)CC1)c1ccccc1-c1ccc(C(F)(F)F)cc1,13.5
9,COP(=S)(OC)Oc1ccc(SC)c(C)c1,4.44
10,COc1ccc(-n2nc3c(N4CCCC(C(=O)NCc5ccccc5C)C4)nnc(C)c3c2C)cc1 (stereo not drawn),2.48
11,COc1ccc(CCN(C)CCC[C@@](C#N)(c2cc(OC)c(OC)c(OC)c2)C(C)C)cc1OC,7.68
12,COc1cc(C=O)ccc1O,97.1
13,N#Cc1cnc2cnc(NCc3cccnc3)cc2c1Nc1ccc(F)c(Cl)c1,12.4
14,CCC(C(=O)O)c1ccc(N2Cc3ccccc3C2=O)cc1 (stereo not drawn),> 120
15,Cc1cc(CN)cc(C)c1NC(=O)c1ccc(-c2cc(Cl)ccc2Cl)o1,> 120
16,CC1=CC(=O)c2ccccc2C1=O,11.4
17,O=C(CSc1nc2ccccc2n1Cc1cccc(Cl)c1)N1CCN(c2ccc(F)cc2)CC1,0.81
18,Cc1c(N2C(=O)[C@@H]3[C@H](O)CCN3C2=O)ccc(C#N)c1Cl,> 120
19,CC(C)(C)c1ccc(C(=O)CCCCl)cc1,3.84
20,CCCCS(=O)(=O)N[C@@H](Cc1ccc(OCCCCC2CCNCC2)cc1)C(=O)O,> 120
21,CC(=O)N1CCCc2cc(S(=O)(=O)Nc3ccc(OC(F)(F)F)cc3)ccc21,20.9
22,CCCCC(=O)O[C@]1(C(=O)CO)[C@@H](C)C[C@H]2[C@@H]3CCC4=CC(=O)C=C[C@]4(C)[C@@]3(F)[C@@H](O)C[C@@]21C,4.35
23,O=C(Cc1ccc(-c2ccccc2)cc1)NC1CCC1,1.5
